Read-outs that look alike come from different tables or passages of the source. Residues, ends and D or L forms follow the SMILES beside them. *: point of attachment. AMC = Cc1cc(=O)oc2cc(N*)ccc12; Cbz = O=C(OCc1ccccc1)*
Assays:
[1] = molecular target: T1, CTL (Recombinant human Cathepsin L) (Homo sapiens, UniProt P07711); assay: Probe activation by CTL, turn-on ratio and selectivity; type: biochemical
T1 construct: purchased Abcam ab174030
Experimental: (§1) CTV and CTB appear to remain within the initial velocity region of the curves during this time, with a markedly lower slope than that observed for CTL initially.
To determine the relative selectivity of either probe for CTL, we examined the turn-on ratio (TOR) of the probes in response to each enzyme over the first hour of incubation by dividing the emission intensity at each time point by the average intensity of the probe in buffer without enzyme (FIG. 4).
(§2) • 1. Recombinant human Cathepsin L/MEP protein (Active) • a. Product ab174030; Lot No. (Conc.) GR3210572-1 (N/A) Sino Biological • 1. Human Cathepsin B/CTSB Protein (His Tag) • a. Cat. No. 10483-H08H • 2. Human Cathepsin V/Cathepsin L2/Preproprotein Protein (His Tag) • a. Cat. No. 10093-H08H • 3. Human Cathepsin S/CTSS Protein (His Tag) • a. Cat. No. 10487-H08H Santa Cruz Biotechnology, Inc. • 1. […] Enzyme storage and preparation:
Enzyme stocks (2.5 uM) were thawed and diluted to 100 nM with cathepsin storage buffer (pH 5.5). From calibrated probe stocks were created 50 uM working stocks in DMSO (3-157 accidentally prepared to 62.5 uM instead). In a 96-well plate, solutions of cathepsin reaction buffer (either pH 5.0 or 6.5), enzyme (5 nM), and probe (5 uM) were prepared. Probe added last to the reaction wells, then read in Synergy H1 plate reader immediately (˜5 min) for emission intensity at 350-445 nm. The plate was read at various time points, then stored in fridge overnight but not quenched. The pH 5.0 plate was read again after 48 h to capture completed reaction stage, and to collect emission spectra at 350 nm excitation for both caged and activated compound wells. […]
(§3) Cathepsins reconstituted as usual and diluted into cathepsin reaction buffers (pH 5.0 or 6.5) in an opaque-bottom 96-well plate. Probes added quickly to each active well, then emission measured immediately on BioTek Synergy H1 plate reader, collecting consecutive 36 sec runs over the first 15 min of reaction time. […]

[2] = molecular target: T2, CTS (Human Cathepsin S/CTSS Protein) (Homo sapiens, UniProt P25774); assay: Time-course cathepsin assay, CTS signal normalized to CTL; type: biochemical; conditions: 5 uM probe, 5 nM enzyme, lowest competing signal over time course
T2 construct: His; purchased Sino Biological 10487-H08H
T2 sequence (P25774 115-331): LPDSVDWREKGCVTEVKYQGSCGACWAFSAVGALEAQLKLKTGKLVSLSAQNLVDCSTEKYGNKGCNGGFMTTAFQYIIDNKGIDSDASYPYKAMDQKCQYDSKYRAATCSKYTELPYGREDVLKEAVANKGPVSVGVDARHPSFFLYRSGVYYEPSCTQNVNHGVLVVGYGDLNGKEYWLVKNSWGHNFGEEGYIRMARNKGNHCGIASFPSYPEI
Source text: as §1
(§4) The kinetic assays were repeated at pH 5.0 (FIG. 3C, D), and overall the same trends were observed as at pH 6.5. One notable difference is the altered reaction slope of CTL at this pH, which appears to have less of a plateau and instead seems to shift to a second phase of constant, yet slower, velocity. […] This improved activity of CTB at low pH is consistent with previous observations that CTB's unique carboxypeptidase activity is dependent on an acidic environment, and that this activity is disengaged at neutral pH^13.
(§5) To estimate relative selectivity of the compounds for CTL over the other enzymes, the intensity at each time point for CTB, CTV, or CTS, was divided by the intensity of CTL at the same time point; this normalizes CTL-generated signal intensity to 1.0, and expresses the relative signal generated by the other enzymes (FIG. 5). These graphs indicate that off-target signal is least prominent within the first 10 min of incubation, as the faster kinetics of the probes to CTL generate more contrast at these earlier time points. To quantify the selectivity of CTLAP and sc-3136, the lowest interfering signal from each enzyme was identified and tabulated in Table 1. Also identified was the assay time at which the total competing signal (sum of CTB, CTV, and CTS) was lowest, and the relative intensity of all competing enzymes at that time point. […] The optimum results are achieved within 10 min incubation time, lending strength to the application of CTLAP for rapid detection of CTL, even in the presence of competing enzymes.
as §2
(§6) Cathepsins reconstituted as usual and diluted into cathepsin reaction buffers (pH 5.0 or 6.5) in an opaque-bottom 96-well plate. Probes added quickly to each active well, then emission measured immediately on BioTek Synergy H1 plate reader, collecting consecutive 36 sec runs over the first 15 min of reaction time. Final probe concentration was 5 uM and final enzyme concentration was 5 nM.

[3] = Molar attenuation coefficient and quantum yield; type: physicochemical; conditions: for ε × 10^−3 (molar attenuation coefficient): absorption at 350 nm, standardized against 4-methylumbelliferone (MU); for ϕF (quantum yield): excitation 350 nm, emission 380-600 nm, standardized against MU
Experimental: To determine quantum yields, standard curves of CTLAP and sc-3136 were constructed between 0-10 μM in buffer, and the absorbance and total emission was measured. Values for the molar attenuation coefficient and quantum yield were standardized using measured absorption and emission intensity of 4-methylumbelliferone (MU) and its literature quantum yield and molar attenuation coefficient^14. Absorption of the solutions at 350 nm was measured, and all three compounds reported good (R^2>0.96) linear fit with increasing concentration (FIG. 10A). To measure total emission intensity, the emission spectrum of each compound was collected between 380-600 nm at an excitation wavelength of 350 nm; the area under the emission curve was calculated and graphed as a function of absorption value at 350 nm for each sample (FIG. 10B).
Compounds were compared to 4-methylumbelliferone (4-MU) and 2,4-difluoro-4-methylumbelliferone (DiFMU).
To construct calibration curves, stock solutions of 4-MU and DiFMU were prepared at ˜1 mM, then diluted with buffer (carbonate buffer, pH 10) to 50 uM. From these solutions, standard curves were constructed at 50, 25, 10, 5, and 1 uM by dilution with carbonate buffer, pH 10.1. Solutions were plated in 96-well plates. Absorbance at 350 nm was measured, and the fluorescence curve at 350 nm excitation and 380-600 nm was measured. The absorbance at 350 nm was graphed against the area under the curve (AUC) of the fluorescence spectrum from 380-600 nm, and the slope of each line was used to calculate the quantum yield according to the equation: […]

[4] = Background emission intensity of probes in buffer without enzyme; type: physicochemical; conditions: for emission intensity (background): stocks of equal absorbance at 330 nm, quadruplicate
Experimental: This is attributed to the lower emission intensity observed in CTLAP in buffer without enzyme; the measured emission intensity of the compound at 5 μM is consistently 6- to 8-fold lower than that of sc-3136 (FIG. 6). As low background signal can improve the sensitivity and detection limit of fluorogenic assays, we sought to identify the cause of the low background intensity of CTLAP. We first examined the spectral and photophysical properties of the compound to confirm that this low background intensity was not an artifact of experimental methods.
We next tested hypothesis (2), that the emission intensity measured for CTLAP or sc-3136 was somehow compromised by the experimental conditions or by the structural differences of the compounds.
To duplicate unexpected absorbances from 4-131, stocks of probes from 4-128 used to create true 50 uM stocks. UV absorbance at 330 nm measured in a 96-well plate, then 150 uL transferred to an opaque-bottom plate and emission intensity (350/445 nm) was measured. Experiments run in quadruplicate, with a buffer blank. Measured on a BioTek Synergy H1.
50 uL of these solutions were diluted with 150 uL cathepsin L reaction buffer (pH 5.0) to give solutions of 5 uM compound in 25% DMSO/buffer. These samples were used to measure UV-Vis spectra (250-400 nm) on a Shimadzu UV-2700. A blank solution of 25% DMSO/buffer was used to baseline the instrument. Between samples, the cuvette was flushed with 200 uL DMSO, drained, and the next sample was added.
The remaining 150 uL of solution was diluted with 450 uL buffer to give 600 uL of 5 uM compound in 25% DMSO/buffer. The solution was transferred to an opaque-bottom 96-well plate, in three aliquots of 200 uL. The plate was used to measure emission and excitation spectra, and quantitative endpoint emission intensities. All spectral scans were collected at 50 Gain, in 5 nm steps.

CTB, CTV, and CTS = assay: Time-course cathepsin assay, total competing signal (sum of CTB, CTV, and CTS) normalized to CTL; type: biochemical, human; conditions: 5 uM probe, 5 nM enzyme
Source text: as §1, §4, §5
Table 1. Signal generated by CTB, CTV, and CTS, or all three enzymes together, relative to CTL signal at that time point. The lowest competing signal over the time course in FIG. 5 was selected for each individual enzyme, as well as for the sum of signals from all three enzymes. The time point at which the sum of all competing signals is lowest is also listed.
• 1. Recombinant human Cathepsin L/MEP protein (Active) • a. Product ab174030; Lot No. (Conc.) GR3210572-1 (N/A) Sino Biological • 1. Human Cathepsin B/CTSB Protein (His Tag) • a. Cat. No. 10483-H08H • 2. Human Cathepsin V/Cathepsin L2/Preproprotein Protein (His Tag) • a. Cat. No. 10093-H08H • 3. Human Cathepsin S/CTSS Protein (His Tag) • a. Cat. No. 10487-H08H Santa Cruz Biotechnology, Inc. • 1. […]
as §3

[5] = molecular target: T1, CTL (Recombinant human Cathepsin L); assay: HPLC analysis of probe processing by CTL; type: biochemical; conditions: incubated with CTL in buffer at pH 5.0
Experimental: To confirm recognition of CTLAP by CTL, the probe was incubated with CTL in buffer at pH 5.0, and the probe was examined by HPLC analysis (FIG. 2). The compound alone in buffer retained maximum absorption at 330 nm.
[4-105] Cathepsin L reconstituted as per manufacturer's instructions, then diluted in a preliminary cathepsin storage buffer, in line with a literature procedure^16 (100 mM NaOAc/MaOH, 100 mM NaCl, 10 mM DTT, 1 mM EDTA, pH 5.5). Frozen in −80° C. freezer, and a portion removed and diluted in more cathepsin storage buffer to create 100 nM stock.
In opaque-bottom […], buffer (unfiltered) plated, then probes added, then enzyme added. Final solution in each well was 5 uM probe, 5 nM CTL, 10% DMSO/NaOAc buffer. Incubated at 37° C., removed at 10 min, 30 min, 1 h, and 4 h for measurement on plate reader (Synergy H1). […] Stored in tin foil at rt for 2 days, then stored in fridge.
To observe probe conversion, a well was diluted with DI water and injected into HPLC. […] The UV absorption traces of the new product(s) matched that of AMC.

[6] = molecular target: CTB (Human Cathepsin B/CTSB Protein) (Homo sapiens, UniProt P07858); assay: Time-course cathepsin assay, CTB signal normalized to CTL; type: biochemical; conditions: 5 uM probe, 5 nM enzyme, lowest competing signal over time course
Source text: as §1, §4, §5, §2, §6

[7] = molecular target: T3, CTV (Human Cathepsin V/Cathepsin L2) (Homo sapiens, UniProt O60911); assay: Time-course cathepsin assay, CTV signal normalized to CTL; type: biochemical; conditions: 5 uM probe, 5 nM enzyme, lowest competing signal over time course
T3 construct: His; purchased Sino Biological 10093-H08H
T3 sequence (O60911 114-334): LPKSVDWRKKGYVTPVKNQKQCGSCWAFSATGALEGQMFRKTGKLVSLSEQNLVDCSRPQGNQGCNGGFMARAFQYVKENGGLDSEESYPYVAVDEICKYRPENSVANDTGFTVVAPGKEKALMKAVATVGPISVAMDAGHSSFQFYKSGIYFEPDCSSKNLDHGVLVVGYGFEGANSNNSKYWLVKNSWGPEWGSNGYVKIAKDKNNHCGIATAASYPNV
Source text: as §1, §4, §5, §2, §6

[8] = standard, literature value; cited from earlier work

T1 sequence (P07711 114-333): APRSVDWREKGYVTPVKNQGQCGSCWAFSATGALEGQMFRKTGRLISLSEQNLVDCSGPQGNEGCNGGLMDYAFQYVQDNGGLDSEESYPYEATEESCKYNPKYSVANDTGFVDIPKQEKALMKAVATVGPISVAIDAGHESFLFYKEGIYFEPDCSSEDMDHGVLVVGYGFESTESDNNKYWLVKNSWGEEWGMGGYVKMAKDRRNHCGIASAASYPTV

Optimal (lowest) CTS signal normalized to CTL ([2]; pH 5.0) [%] | Optimal (lowest) CTS signal normalized to CTL ([2]; pH 6.5) [%] | ε × 10^−3 (molar attenuation coefficient) [3] | ϕF (quantum yield) [3] | emission intensity (background) ([4]; 350/445 nm) [rfu] | Lowest sum of signals from all three enzymes (B + V + S) normalized to CTL (CTB, CTV, and CTS; pH 5.0) [%] | Lowest sum of signals from all three enzymes (B + V + S) normalized to CTL (CTB, CTV, and CTS; pH 6.5) [%] | Optimal (lowest) CTB signal normalized to CTL ([6]; pH 5.0) [%] | Optimal (lowest) CTB signal normalized to CTL ([6]; pH 6.5) [%] | Optimal (lowest) CTV signal normalized to CTL ([7]; pH 5.0) [%] | Optimal (lowest) CTV signal normalized to CTL ([7]; pH 6.5) [%] | SMILES | also measured
1 | 1 | 11.0 | 0.02 | 6.1e3 | 31 | 25 | 15 | 6 | 10 | 15 | Cc1cc(=O)oc2cc(NC(=O)C(CCCCN)NC(=O)C(Cc3ccc(-c4cccs4)cc3)NC(=O)OCc3ccccc3)ccc12 (centres unmarked) [CTLAP] | selectivity for CTL over other cathepsins [1]: 6- to 10 fold; turn-on ratio (TOR) relative to that of sc-3136 ([1]; after 1 h incubation): approximately 4 fold; increase in emission intensity ([1]; within 10 min of incubation with CTL): 24 fold; emission intensity in buffer without enzyme, fold lower than sc-3136 ([4]; compound at 5 μM, 350 nm excitation, 445 nm emission): 6- to 8 fold; conversion of probe to free AMC peak (HPLC) [5]: full conversion
– | – | – | – | – | – | – | – | – | – | – | Cc1cc(=O)oc2cc(O)ccc12 [MU, 4-methylumbelliferone] | ε × 10^−3 (molar attenuation coefficient) [8]: 19.3; ϕF (quantum yield) [8]: 0.63
7 | 7 | 7.5 | 0.32 | 4.8e4 | 39 | 46 | 16 | 21 | 14 | 16 | Cc1cc(=O)oc2cc(NC(=O)C(CCCN=C(N)N)NC(=O)C(Cc3ccccc3)NC(=O)OCc3ccccc3)ccc12 (stereo not drawn) [sc-3136, Z-FR-AMC] (Cbz-Phe-Arg-{AMC}; configuration not given here) | ratio of background intensity for sc-3136 over 3-157 ([4]; 350/445 nm): 7.8 ×; emission intensity ratio between sc-3136 and CTLAP ([4]; excitation at 330 nm): 6.9 fold; emission intensity ratio between sc-3136 and CTLAP ([4]; excitation at 350 nm): 6.3 fold

From US12384767B2, “Probe for detection of cathepsin activity” (University of Florida Research Foundation, Incorporated, priority 2020, dated 2025)
